Reference: US9079913B2, “Spiro-oxindole MDM2 antagonists” (The Regents of the University of Michigan, priority 2009, dated 2015)
Like-named read-outs stand apart in the source and are kept apart here.

Legend:
[1] = tested on: Isogenic HCT-116 colon cancer cell lines; assay: cells; type: cell-based;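 further: cells grown in 96-well plates in McCoy's 5A medium with 10% FBS, exposed to compound for 4 days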
Experimental: Cells were seeded in 96-well flat bottom cell culture plates at a density of 2−3×10^3 cells/well with compounds and incubated for 4 days.

[2] = target: recombinant human His-tagged MDM2 protein (residues 1-118) (Homo sapiens (Human), UniProt Q00987); assay: Fluorescence-polarization MDM2 binding assay;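 further: fluorescence polarization read after three hours of incubation in potassium phosphate buffer containing bovine gamma globulin and Triton X-100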
Sequence of recombinant human His-tagged MDM2 protein (residues 1-118) (Q00987 1-118): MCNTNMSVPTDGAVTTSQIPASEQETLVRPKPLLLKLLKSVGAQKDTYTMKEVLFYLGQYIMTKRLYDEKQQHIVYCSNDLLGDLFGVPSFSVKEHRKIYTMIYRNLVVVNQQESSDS

[3] = tested on: cancer cell lines with wild-type p53 / mutated or deleted p53 (ATCC); assay: Cell growth assay (WST-8), other cancer cell lines; type: cell-based
[4] = Homo sapiens, HCT-116, read-out: Cell growth inhibition using WST assay, HCT116 p53KO IC50, Table 19C, HCT116 p53KO
[5] = Homo sapiens, HCT-116, read-out: Cell growth inhibition using WST assay, HCT116 p53WT IC50, Table 19C, HCT116 p53WT
[6] = Table 19C, read-out: Bidning affinities to MDM2 as determined using FP assay IC50
[7] = Homo sapiens, HCT-116, read-out: HCT-116 (p53-/-) IC50, Table 19A, HCT-116 p53-/-, cell growth
[8] = Homo sapiens, HCT-116, read-out: HCT-116 (p53 wild-type) IC50, Table 19A, HCT-116 p53 wild-type, cell growth
[9] = Table 19A, FP binding assay, read-out: MDM2 IC50
[10] = Homo sapiens, SJSA-1, Table 19A, SJSA-1 cells, p53 wild-type, cell growth, read-out: SJSA-1 (p53 wild-type) IC50
[11] = Homo sapiens, HCT-116, read-out: Inhibition of cell growth IC50, HCT116 p53 KO, Table 19B, HCT116 p53 KO
[12] = Homo sapiens, HCT-116, read-out: Inhibition of cell growth IC50, HCT116 p53 WT, Table 19B, HCT116 p53 WT
[13] = Table 19B, read-out: Binding affinities to MDM2 protein as determined by FP based assay IC50
[14] = Homo sapiens, LNCaP, Table 19B, LNCaP cells, read-out: Inhibition of cell growth IC50, LNCaP
[15] = Homo sapiens, PC-3, Table 19B, PC3 cells, read-out: Inhibition of cell growth IC50, PC3
[16] = Homo sapiens, LNCaP, Table 19A, LNCAP cells, p53 wild-type, cell growth, read-out: LNCAP (p53 wild-type) IC50
[17] = Homo sapiens, PC-3, Table 19A, PC-3 cells, deleted p53, cell growth, read-out: PC-3 (deleted p53) IC50
[18] = Homo sapiens, HCT-116, read-out: HCT116p53KO IC50, Table 19D, HCT116 p53KO
[19] = Homo sapiens, HCT-116, read-out: HCT116p53WT IC50, Table 19D, HCT116 p53WT
[20] = Table 19D, read-out: MDM2 Binding Affinities IC50
[21] = Homo sapiens, LNCaP, Table 19D, LNCaP cells, read-out: LNCaP IC50
[22] = Homo sapiens, PC-3, Table 19D, PC3 cells, read-out: PC3 IC50

CC(C)(C)C[C@H]1N[C@@H](C(=O)NCCN2CCN(C(=O)CO)CC2)[C@H](c2cccc(Cl)c2)[C@@]12C(=O)Nc1cc(Cl)c(F)cc12 [MI-319-33]
IC50 [1, 4]: 25.3 ± 2.8 µM
IC50 [1, 5]: 2.1 ± 0.2 µM
IC50 [2, 6]: < 1 µM
IC50 ([3]; Homo sapiens, LNCaP, Table 19C, LNCaP cells, read-out: Cell growth inhibition using WST assay, LNCaP IC50): 1.4 ± 0.2 µM
IC50 ([3]; Homo sapiens, PC-3, Table 19C, PC3 cells, read-out: Cell growth inhibition using WST assay, PC3 IC50): 23.6 ± 5.5 µM

CC(C)(C)C[C@H]1N[C@@H](C(=O)NC2CCNCC2)[C@H](c2cccc(Cl)c2F)[C@@]12C(=O)Nc1cc(Cl)ccc12 [MI-782]
IC50 [1, 7]: 4.7 µM
IC50 [1, 8]: 0.7 µM
IC50 [2, 9]: < 1 µM
IC50 [3, 10]: 1.2 µM

CC(C)CC(C)(C)C[C@H]1N[C@@H](C(=O)NCC[C@H](O)CO)[C@H](c2cccc(Cl)c2)[C@@]12C(=O)Nc1cc(F)c(F)cc12 [MI-735]
IC50 [1, 11]: 8.5 ± 1.1 µM
IC50 [1, 12]: 1.2 ± 0.3 µM
IC50 [2, 13]: < 1 µM
IC50 [3, 14]: 1.1 ± 0.4 µM
IC50 [3, 15]: 8.6 ± 0.9 µM

CN1[C@@H](C(=O)NCC[C@H](O)CO)[C@H](c2cccc(Cl)c2)[C@@]2(C(=O)Nc3cc(Cl)c(F)cc32)[C@H]1CCCc1ccccc1 [MI-709]
IC50 [1, 11]: 9.4 ± 1.2 µM
IC50 [1, 12]: 9.9 ± 1.7 µM
IC50 [2, 13]: > 10 µM
IC50 [3, 14]: 5.6 ± 1.1 µM
IC50 [3, 15]: 7.2 ± 1.4 µM

O=C(NC1CCC(O)CC1)[C@@H]1N[C@H](CC2CCCC2)[C@]2(C(=O)Nc3cc(Cl)ccc32)[C@H]1c1cccc(Cl)c1F (stereo partly drawn) [MI-791]
IC50 [1, 7]: > 10 µM
IC50 [1, 8]: < 3 µM
IC50 [2, 9]: < 3 µM
IC50 [3, 16]: < 3 µM
IC50 [3, 17]: > 10 µM
IC50 [3, 10]: < 3 µM

O=C(NCC[C@H](O)CO)[C@@H]1N[C@H](CCC2CCCC2)[C@]2(C(=O)Nc3cc(Cl)c(F)cc32)[C@H]1c1cccc(Cl)c1 [MI-712]
IC50 [1, 11]: 9.1 ± 1 µM
IC50 [1, 12]: 1.8 ± 0.4 µM
IC50 [2, 13]: < 3 µM
IC50 [3, 14]: 1 µM
IC50 [3, 15]: 7.9 ± 0.2 µM

CC(C)(C)C[C@@H]1[C@]2(C(=O)Nc3cc(Cl)c(F)cc32)[C@@H](c2cccc(Cl)c2)[C@H](C(=O)NCC[C@H](O)CO)[N+]1(C)C [MI-719]
IC50 [1, 11]: > 100 µM
IC50 [1, 12]: 58.6 ± 14.9 µM
IC50 [2, 13]: > 10 µM
IC50 [3, 14]: 51.2 µM
IC50 [3, 15]: > 100 µM

CCCN1CCN(CCNC(=O)[C@@H]2N[C@H](CC(C)(C)C)[C@]3(C(=O)Nc4cc(Cl)c(F)cc43)[C@H]2c2cccc(Cl)c2)CC1 [MI-519-21]
IC50 [1, 18]: 5.8 ± 1.9 µM
IC50 [1, 19]: 1.4 ± 0.5 µM
IC50 [2, 20]: < 3 µM
IC50 [3, 21]: 1.5 ± 0.6 µM
IC50 [3, 22]: 4.8 ± 0.4 µM

CCOP(=O)(OCC)OC[C@@H](O)CCNC(=O)[C@@H]1N[C@H](CC(C)(C)C)[C@]2(C(=O)Nc3cc(Cl)c(F)cc32)[C@H]1c1ccc(F)c(Cl)c1 [MI-319-27]
IC50 [1, 4]: > 10 µM
IC50 [1, 5]: < 5 µM
IC50 [2, 6]: < 5 µM
IC50 ([3]; Homo sapiens, LNCaP, read-out: Cell growth inhibition using WST assay, LNCaP IC50): < 5 µM
IC50 ([3]; Homo sapiens, PC-3, read-out: Cell growth inhibition using WST assay, PC3 IC50): > 10 µM

CC(C)(C)C[C@H]1N[C@@H](C(=O)NCC[C@H](O)CO)[C@H](c2cccc(Cl)c2)[C@@]12C(=O)Nc1cc(F)c(F)cc12 [MI-519-9]
IC50 [1, 18]: > 10 µM
IC50 [1, 19]: < 3 µM
IC50 [2, 20]: < 3 µM
IC50 [3, 21]: < 3 µM
IC50 [3, 22]: > 10 µM

CC(C)(C)C[C@H]1N[C@@H](C(=O)NC2CCC(OC(=O)C(C)(C)N)CC2)[C@H](c2cccc(Cl)c2F)[C@@]12C(=O)Nc1cc(Cl)ccc12 (stereo partly drawn) [MI-907]
IC50 [1, 7]: 7 µM
IC50 [1, 8]: < 3 µM
IC50 [2, 9]: < 1 µM
IC50 [3, 16]: < 3 µM
IC50 [3, 17]: 3 µM
IC50 [3, 10]: < 3 µM

CC(C)(C)C[C@H]1N[C@@H](C(=O)NCCC(=O)CO)[C@H](c2cccc(Cl)c2)[C@@]12C(=O)Nc1cc(Cl)c(F)cc12 [MI-219-M1 (b)]
IC50 [1, 7]: > 10 µM
IC50 [1, 8]: < 3 µM
IC50 [2, 9]: < 1 µM
IC50 [3, 16]: < 3 µM
IC50 [3, 17]: > 10 µM

CC(C)(C)C[C@H]1N[C@@H](C(=O)NC2CN(CC(C)(C)O)C2)[C@H](c2cccc(Cl)c2F)[C@@]12C(=O)Nc1cc(Cl)ccc12 [MI-909]
IC50 [1, 7]: > 5 µM
IC50 [1, 8]: < 3 µM
IC50 [2, 9]: < 1 µM
IC50 [3, 16]: < 3 µM
IC50 [3, 17]: > 5 µM
IC50 [3, 10]: < 3 µM

CN1[C@@H](C(=O)NCC[C@H](O)CO)[C@H](c2cccc(Cl)c2)[C@@]2(C(=O)Nc3cc(Cl)c(F)cc32)[C@H]1CC(C)(C)C [MI-717]
IC50 ([1]; read-out: Inhibition of cell growth IC50, HCT116 p53 KO, Table 19B, HCT116 p53 KO): 47.8 ± 1.4 µM
IC50 ([1]; read-out: Inhibition of cell growth IC50, HCT116 p53 WT, Table 19B, HCT116 p53 WT): 2.2 ± 0.1 µM
IC50 [2, 13]: > 3 µM
IC50 ([3]; Table 19B, LNCaP cells, read-out: Inhibition of cell growth IC50, LNCaP): 2.7 ± 0.6 µM
IC50 ([3]; Table 19B, PC3 cells, read-out: Inhibition of cell growth IC50, PC3): 31.5 ± 1.4 µM
